Reference: ChEMBL document CHEMBL1124815, “Novel piperidine derivatives. Synthesis and anti-acetylcholinesterase activity of 1-benzyl-4-[2-(N-benzoylamino)ethyl]piperidine derivatives” (J Med Chem, 1990)

Experiments:
Acetylcholinesterase = molecular target: T1, Acetylcholinesterase (Mus musculus, UniProt P21836); assay: Inhibitory activity against mouse brain Acetylcholinesterase
T1 sequence (P21836 whole entry): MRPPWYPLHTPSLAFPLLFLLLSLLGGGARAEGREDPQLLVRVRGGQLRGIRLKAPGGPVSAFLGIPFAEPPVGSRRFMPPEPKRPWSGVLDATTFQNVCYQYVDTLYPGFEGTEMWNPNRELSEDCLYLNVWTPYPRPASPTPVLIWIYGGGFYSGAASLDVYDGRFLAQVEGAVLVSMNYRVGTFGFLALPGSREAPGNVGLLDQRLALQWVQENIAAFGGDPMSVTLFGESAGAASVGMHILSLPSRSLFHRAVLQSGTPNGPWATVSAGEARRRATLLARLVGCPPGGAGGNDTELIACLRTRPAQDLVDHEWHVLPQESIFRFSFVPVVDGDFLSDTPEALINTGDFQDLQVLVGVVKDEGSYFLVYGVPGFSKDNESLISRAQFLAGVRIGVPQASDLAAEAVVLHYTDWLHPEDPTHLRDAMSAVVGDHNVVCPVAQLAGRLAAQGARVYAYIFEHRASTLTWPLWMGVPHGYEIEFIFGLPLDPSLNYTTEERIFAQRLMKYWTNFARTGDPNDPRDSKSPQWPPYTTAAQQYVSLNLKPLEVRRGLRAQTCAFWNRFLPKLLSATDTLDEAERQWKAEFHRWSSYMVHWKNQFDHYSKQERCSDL

[1] = molecular target: T2, Acetylcholinesterase (Mus musculus) (UniProt P21836); assay: Reversibility of Acetylcholinesterase enzyme inhibition by compound (0.91 uM) before dialysis
T2 sequence (whole entry): T1 sequence (P21836 whole entry)

[2] = molecular target: T2, Acetylcholinesterase (Mus musculus); assay: Reversibility of Acetylcholinesterase enzyme inhibition by compound (0.27 uM) before dialysis
[3] = molecular target: T2, Acetylcholinesterase (Mus musculus); assay: Reversibility of Acetylcholinesterase enzyme inhibition by compound (0.91 uM) after dialysis
Butyrylcholinesterase = Butyrylcholinesterase (Rattus norvegicus, UniProt Q9JKC1); assay: Inhibitory activity against rat butyrylcholinesterase enzyme (BuChE)
[4] = molecular target: T2, Acetylcholinesterase (Mus musculus); assay: Reversibility of Acetylcholinesterase enzyme inhibition by compound (0.27 uM) after dialysis
[5] = molecular target: T2, Acetylcholinesterase (Mus musculus); assay: Reversibility of Acetylcholinesterase enzyme inhibition by compound (91 uM) after dialysis
[6] = molecular target: T2, Acetylcholinesterase (Mus musculus); assay: Reversibility of Acetylcholinesterase enzyme inhibition by compound (91 uM) before dialysis

Sequence of Butyrylcholinesterase (Q9JKC1 whole entry): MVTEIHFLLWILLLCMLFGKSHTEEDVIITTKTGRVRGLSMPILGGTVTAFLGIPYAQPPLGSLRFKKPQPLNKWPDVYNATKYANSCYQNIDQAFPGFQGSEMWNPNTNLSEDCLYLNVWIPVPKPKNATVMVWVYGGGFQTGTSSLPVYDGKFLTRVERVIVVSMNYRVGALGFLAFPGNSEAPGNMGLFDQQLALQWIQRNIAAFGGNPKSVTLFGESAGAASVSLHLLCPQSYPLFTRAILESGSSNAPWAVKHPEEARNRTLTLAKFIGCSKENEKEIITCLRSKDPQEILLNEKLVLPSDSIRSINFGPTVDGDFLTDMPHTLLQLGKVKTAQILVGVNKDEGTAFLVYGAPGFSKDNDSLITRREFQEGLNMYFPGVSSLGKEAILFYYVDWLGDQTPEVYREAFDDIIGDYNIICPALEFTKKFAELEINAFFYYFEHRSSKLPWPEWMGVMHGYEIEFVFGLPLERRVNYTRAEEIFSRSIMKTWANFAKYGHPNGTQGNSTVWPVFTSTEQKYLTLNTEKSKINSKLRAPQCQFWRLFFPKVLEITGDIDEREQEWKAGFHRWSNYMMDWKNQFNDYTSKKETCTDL

Structure (SMILES) | IC50 (Acetylcholinesterase) | other results
c1ccc(CNCCC2CCN(Cc3ccccc3)CC2)cc1 | 46000 nM | 
Cc1ccccc1C(=O)NCCC1CCN(Cc2ccccc2)CC1 | 1000 nM | 
O=Cc1ccc(C(=O)NCCC2CCN(Cc3ccccc3)CC2)cc1 | 120 nM | 
O=C(CCCC1CCN(Cc2ccccc2)CC1)c1ccccc1 | 530 nM | 
O=C(NCCC1CCN(Cc2ccccc2)CC1)c1ccccc1[N+](=O)[O-] | 880 nM | 
O=C(c1ccccc1)N(CCC1CCN(Cc2ccccc2)CC1)c1ccccc1 | 35 nM | 
O=C(NCCC1CCN(Cc2ccccc2)CC1)c1ccc(F)cc1 | 85 nM | 
O=C(c1ccccc1)N(CCC1CCN(Cc2ccccc2)CC1)Cc1ccccc1 | 940 nM | 
Cc1ccc(C(=O)NCCC2CCN(Cc3ccccc3)CC2)cc1 | 180 nM | 
O=C(NCCC1CCN(Cc2ccccc2)CC1)c1cc[n+]([O-])cc1 | 155 nM | 
O=C(NCCC1CCN(Cc2ccccc2)CC1)c1cccc([N+](=O)[O-])c1 | 230 nM | 
CC(=O)c1ccc(C(=O)NCCC2CCN(Cc3ccccc3)CC2)cc1 | 51 nM | 
O=C(NCCC1CCN(Cc2ccccc2)CC1)c1ccc(Cl)cc1 | 180 nM | 
Cc1cccc(C(=O)NCCC2CCN(Cc3ccccc3)CC2)c1 | 470 nM | 
O=C(NCCC1CCN(Cc2ccccc2)CC1)c1ccc(S(=O)(=O)Cc2ccccc2)cc1 | 29 nM | 
O=C(NCCC1CCN(Cc2ccccc2)CC1)C1CCCCC1 | 1600 nM | 
O=C(NCCC1CCN(Cc2ccccc2)CC1)c1ccccn1 | 800 nM | 
CCN(CCC1CCN(Cc2ccccc2)CC1)C(=O)c1ccccc1 | 130 nM | 
O=C(NCCC1CCN(Cc2ccccc2)CC1)c1ccncc1 | 39 nM | 
CN(CCC1CCN(Cc2ccccc2)CC1)C(=O)c1ccc(S(=O)(=O)Cc2ccccc2)cc1 |  | Reversibility [1]: 5.42; Reversibility [2]: 9.1; Reversibility [3]: 17.8; IC50 (Butyrylcholinesterase): 10100 nM; Reversibility [4]: 17.7; Reversibility [5]: 16.5; Reversibility [6]: 2.59
O=C(NCCC1CCN(Cc2ccccc2)CC1)c1cccnc1 | 69 nM | 
CCN(CCC1CCN(Cc2ccccc2)CC1)C(=O)c1ccc(S(=O)(=O)Cc2ccccc2)cc1 | 0.3 nM | 
COc1ccc(C(=O)NCCC2CCN(Cc3ccccc3)CC2)cc1 | 88 nM | 
O=C(c1ccc(S(=O)(=O)Cc2ccccc2)cc1)N(CCC1CCN(Cc2ccccc2)CC1)c1ccccc1 | 0.6 nM | 
